Assay results: ChEMBL document CHEMBL1135293, “Amino acid derived sulfonamide hydroxamates as inhibitors of procollagen C-proteinase. Part 2: Solid-phase optimization of side chains” (Bioorg Med Chem Lett, 2002)
pIC50: −log10 of the molar value.

Assays:
[1] = molecular target: T1, Bone morphogenetic protein 1 (Homo sapiens, UniProt P13497); test: Inhibitory activity against procollagen C-proteinase (PCP).
T1 sequence (P13497 whole entry): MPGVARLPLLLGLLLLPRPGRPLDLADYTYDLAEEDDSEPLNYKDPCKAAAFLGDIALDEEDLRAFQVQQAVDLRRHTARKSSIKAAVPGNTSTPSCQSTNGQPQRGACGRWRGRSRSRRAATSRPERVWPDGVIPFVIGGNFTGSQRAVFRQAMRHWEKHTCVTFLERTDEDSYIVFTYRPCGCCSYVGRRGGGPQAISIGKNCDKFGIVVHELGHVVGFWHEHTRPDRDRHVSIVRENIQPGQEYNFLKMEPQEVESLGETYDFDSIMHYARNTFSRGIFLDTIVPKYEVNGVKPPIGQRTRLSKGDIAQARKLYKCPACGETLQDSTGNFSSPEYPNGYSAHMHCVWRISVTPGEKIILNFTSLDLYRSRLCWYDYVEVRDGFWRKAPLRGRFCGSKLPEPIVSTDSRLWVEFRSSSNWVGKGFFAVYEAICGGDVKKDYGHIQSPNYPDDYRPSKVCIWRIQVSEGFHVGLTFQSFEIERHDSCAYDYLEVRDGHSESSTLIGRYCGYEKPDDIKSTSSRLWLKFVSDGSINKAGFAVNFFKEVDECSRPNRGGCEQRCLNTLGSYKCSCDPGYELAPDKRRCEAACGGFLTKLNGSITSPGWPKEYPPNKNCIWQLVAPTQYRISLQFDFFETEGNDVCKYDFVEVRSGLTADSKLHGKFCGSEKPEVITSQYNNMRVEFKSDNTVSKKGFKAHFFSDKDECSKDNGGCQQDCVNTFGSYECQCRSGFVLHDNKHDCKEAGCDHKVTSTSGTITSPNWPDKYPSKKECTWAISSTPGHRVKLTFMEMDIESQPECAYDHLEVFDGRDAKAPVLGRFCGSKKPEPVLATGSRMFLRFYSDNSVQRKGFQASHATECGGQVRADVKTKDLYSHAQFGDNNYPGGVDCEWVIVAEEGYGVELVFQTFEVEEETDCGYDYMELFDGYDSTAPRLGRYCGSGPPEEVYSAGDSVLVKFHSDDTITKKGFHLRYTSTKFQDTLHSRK

[2] = molecular target: T1, Bone morphogenetic protein 1; test: Inhibitory activity against Procollagen C-Proteinase (PCP)

Row | pIC50 [1] | pIC50 [2] | SMILES
1 | 6.31 | – | COc1ccc(S(=O)(=O)N(Cc2ccc(Br)cc2F)[C@H](C)C(=O)O)cc1
2 | – | 7.57 | COc1ccc(S(=O)(=O)N(Cc2ccc3c(c2)OCO3)[C@H](Cc2cncn2Cc2ccccc2)C(=O)NO)cc1
3 | 6.68 | – | COC(=O)c1ccc(CN([C@H](Cc2cccs2)C(=O)O)S(=O)(=O)c2ccc(OC)cc2)cc1
4 | – | 6.92 | COc1ccc(S(=O)(=O)N(Cc2ccc(Cl)c(Cl)c2)[C@H](C)C(=O)NO)cc1
5 | 7.55 | – | CCN(CC)C(=N)NCCC[C@H](C(=O)O)N(Cc1ccc2c(c1)OCO2)S(=O)(=O)c1ccc(OC)cc1
6 | – | 7.12 | COc1ccc(S(=O)(=O)N(Cc2ccc(F)c(F)c2)[C@H](C)C(=O)NO)cc1
7 | 6.54 | – | C=CCOc1ccc2ccc(CN([C@H](Cc3cccs3)C(=O)NO)S(=O)(=O)c3ccc(OC)cc3)cc2c1
8 | 6.21 | – | COc1ccc(S(=O)(=O)N(CCn2cccc2)[C@H](Cc2cccs2)C(=O)NO)cc1
9 | – | 6.64 | COc1ccc(S(=O)(=O)N(Cc2cc(C)on2)[C@H](C)C(=O)NO)cc1
10 | – | 7.03 | COc1ccc(S(=O)(=O)N(Cc2cccc(Br)c2)[C@H](C)C(=O)NO)cc1
11 | 6.92 | – | COc1ccc(S(=O)(=O)N(Cc2cc(C)on2)[C@H](Cc2cccs2)C(=O)O)cc1
12 | – | 7.49 | COc1ccc(CSC[C@H](C(=O)NO)N(Cc2ccc3c(c2)OCO3)S(=O)(=O)c2ccc(OC)cc2)cc1
13 | – | 7.43 | COc1ccc(S(=O)(=O)N(Cc2ccc(Br)cc2)[C@H](C)C(=O)NO)cc1
14 | 6.44 | – | COc1ccc(S(=O)(=O)N(Cc2ccc(I)cc2)[C@H](Cc2cccs2)C(=O)NO)cc1
15 | – | 9.70 | COc1ccc(S(=O)(=O)N(Cc2ccc3c(c2)OCO3)[C@H](Cc2cccs2)C(=O)NO)cc1 (stereo in doubt; 41)
16 | – | 7.35 | COc1ccc(S(=O)(=O)N(Cc2ccc3c(c2)OCO3)[C@H](CSc2ccc(C)cc2)C(=O)NO)cc1
17 | 6.07 | – | COc1ccc(S(=O)(=O)N(Cc2ccc(Cl)cc2Cl)[C@H](Cc2cccs2)C(=O)NO)cc1
18 | – | 6.77 | COc1ccc(S(=O)(=O)N(CCn2cccc2)[C@H](C)C(=O)NO)cc1
19 | – | 7.15 | COc1ccc(S(=O)(=O)N(Cc2ccc(Br)cc2)[C@H](Cc2cccs2)C(=O)NO)cc1
20 | 6.96 | – | COC(=O)c1ccc(CN([C@H](Cc2cccs2)C(=O)NO)S(=O)(=O)c2ccc(OC)cc2)cc1
21 | 7.62 | – | COc1ccc(S(=O)(=O)N(Cc2ccc3c(c2)OCO3)[C@H](Cc2cccs2)C(=O)O)cc1
22 | 6.36 | – | COc1ccc(S(=O)(=O)N(Cc2ccc(-c3cnns3)cc2)[C@H](Cc2cccs2)C(=O)NO)cc1
23 | 6.60 | – | COc1ccc(CSC[C@H](C(=O)O)N(Cc2ccc3c(c2)OCO3)S(=O)(=O)c2ccc(OC)cc2)cc1
24 | 6.96 | – | COc1ccc(S(=O)(=O)N(Cc2ccc(C)cc2)[C@H](Cc2cccs2)C(=O)NO)cc1
25 | – | 7.74 | COc1ccc(S(=O)(=O)N(Cc2ccc3c(c2)OCO3)[C@@H](C(=O)NO)C(=O)C(N)CNC(=O)OCc2ccccc2Br)cc1 (stereo partly drawn)

Row | pIC50 [1] | pIC50 [2] | SMILES
26 | – | 7.28 | COc1ccc(S(=O)(=O)N(Cc2ccc3c(c2)OCO3)[C@H](CCCNC(=O)OC(C)(C)C)C(=O)NO)cc1
27 | – | 10.62 | COc1ccc(S(=O)(=O)N(Cc2ccc3c(c2)OCO3)[C@@H](C(=O)NO)C(=O)C(N)CNC(=O)OCC2c3ccccc3-c3ccccc32)cc1 (stereo partly drawn)
28 | – | 8.22 | COc1ccc(S(=O)(=O)N(Cc2ccccc2C(F)(F)F)[C@H](C)C(=O)NO)cc1
29 | – | 7.49 | COc1ccc(S(=O)(=O)N(Cc2ccc3c(c2)OCO3)[C@H](Cc2ccc([N+](=O)[O-])cc2)C(=O)NO)cc1
30 | 7.30 | – | COc1ccc(S(=O)(=O)N(Cc2sc3scc(C)c3c2C)[C@H](C)C(=O)O)cc1
31 | – | 6.66 | COc1ccc(S(=O)(=O)N(Cc2ccc3cc(C)ccc3c2)[C@H](C)C(=O)NO)cc1
32 | 6.23 | – | COc1ccc(S(=O)(=O)N(Cc2cc(C(F)(F)F)cc(C(F)(F)F)c2)[C@H](Cc2cccs2)C(=O)NO)cc1
33 | – | 7.40 | COc1ccc(S(=O)(=O)N(Cc2sccc2Oc2ccccc2)[C@H](C)C(=O)NO)cc1
34 | – | 6.66 | COc1ccc(S(=O)(=O)N(Cc2ccc(OC)c(C)c2C)[C@H](C)C(=O)NO)cc1
35 | 7.59 | – | COc1ccc(S(=O)(=O)N(Cc2ccc3c(c2)OCO3)[C@@H](C(=O)O)C2CCN(C(=O)OC(C)(C)C)CC2)cc1
36 | – | 6.92 | COc1ccc(S(=O)(=O)N(Cc2cccc(C)c2[N+](=O)[O-])[C@H](C)C(=O)NO)cc1
37 | – | 6.89 | C=CCOc1ccc2ccc(CN([C@H](C)C(=O)NO)S(=O)(=O)c3ccc(OC)cc3)cc2c1
38 | – | 6.85 | COc1ccc(S(=O)(=O)N(Cc2cc(F)cc(F)c2)[C@H](C)C(=O)NO)cc1
39 | – | 7.22 | COc1ccc(S(=O)(=O)N(Cc2ccc(C)c([N+](=O)[O-])c2)[C@H](Cc2cccs2)C(=O)NO)cc1
40 | 6.82 | – | COc1ccc(S(=O)(=O)N(Cc2cccc(C)c2F)[C@H](Cc2cccs2)C(=O)NO)cc1
41 | – | 7.85 | COc1ccc(S(=O)(=O)N(Cc2ccc3c(c2)OCO3)[C@@H](C(=O)NO)C(=O)C(N)CNC(=O)OCc2ccccc2)cc1 (stereo partly drawn)
42 | – | 6.64 | COc1ccc(S(=O)(=O)N(Cc2ccc(C(C)C)cc2)[C@H](C)C(=O)NO)cc1
43 | 6.36 | – | COc1ccc(S(=O)(=O)N(Cc2ccc(Cl)c(Cl)c2)[C@H](Cc2cccs2)C(=O)NO)cc1
44 | 6.72 | – | C=Cc1ccc(CN([C@H](Cc2cccs2)C(=O)NO)S(=O)(=O)c2ccc(OC)cc2)cc1
45 | – | 7.64 | C=CCOC(=O)NCC(N)C(=O)[C@H](C(=O)NO)N(Cc1ccc2c(c1)OCO2)S(=O)(=O)c1ccc(OC)cc1 (stereo partly drawn)
46 | 6.64 | – | COc1ccc(S(=O)(=O)N(Cc2cccc(Br)c2)[C@H](Cc2cccs2)C(=O)O)cc1
47 | – | 7.05 | COc1ccc(S(=O)(=O)N(Cc2cccc3ccccc23)[C@H](C)C(=O)NO)cc1
48 | – | 7.40 | COc1ccc(C[C@H](C(=O)NO)N(Cc2ccc3c(c2)OCO3)S(=O)(=O)c2ccc(OC)cc2)cc1
49 | – | 7.52 | COc1ccc(S(=O)(=O)N(Cc2ccc(Cl)c([N+](=O)[O-])c2)[C@H](C)C(=O)NO)cc1
50 | 6.31 | – | COc1ccc(S(=O)(=O)N(Cc2ccc(OC)c(C)c2)[C@H](Cc2cccs2)C(=O)NO)cc1

Row | pIC50 [1] | pIC50 [2] | SMILES
51 | – | 7.44 | COc1ccc(S(=O)(=O)N(Cc2ccc3c(c2)OCO3)[C@H](Cc2cncn2C(c2ccccc2)(c2ccccc2)c2ccccc2)C(=O)NO)cc1
52 | – | 6.74 | COc1ccc(S(=O)(=O)N(Cc2cnc(Cl)s2)[C@H](C)C(=O)NO)cc1
53 | – | 7.64 | COc1ccc(S(=O)(=O)N(Cc2ccc3c(c2)OCO3)[C@H](COC(C)(C)C)C(=O)NO)cc1
54 | – | 8.34 | COc1ccc(S(=O)(=O)N(Cc2ccc3c(c2)OCO3)[C@@H](C(=O)NO)C(=O)C(N)CNC(=O)OCc2ccccc2Cl)cc1 (stereo partly drawn)
55 | 6.59 | – | COc1ccc(S(=O)(=O)N(Cc2cccc(Br)c2)[C@H](Cc2cccs2)C(=O)NO)cc1
56 | – | 7.30 | COc1ccc(S(=O)(=O)N(Cc2ccc3c(c2)OCO3)[C@H](Cc2cn(C)cn2)C(=O)NO)cc1
57 | 6.70 | – | COc1ccc(S(=O)(=O)N(Cc2ccc(OC)c(C)c2C)[C@H](C)C(=O)O)cc1
58 | – | 7.28 | COc1ccc(S(=O)(=O)N(Cc2ccc3c(c2)OCO3)[C@@H](C(=O)NO)C(C)C)cc1
59 | 6.74 | – | COc1ccc(S(=O)(=O)N(Cc2cc(F)c(F)cc2F)[C@H](Cc2cccs2)C(=O)NO)cc1
60 | – | 7.10 | COc1ccc(S(=O)(=O)N(Cc2ccc(SC)cc2)[C@H](C)C(=O)NO)cc1
61 | – | 7.80 | COc1ccc(S(=O)(=O)N(Cc2ccc3c(c2)OCO3)[C@H](CCCCNC(=O)OCc2ccccc2)C(=O)NO)cc1
62 | – | 6.66 | COc1ccc(S(=O)(=O)N(Cc2cc(C(F)(F)F)cc(C(F)(F)F)c2)[C@H](C)C(=O)NO)cc1
63 | 6.55 | – | COc1ccc(S(=O)(=O)N(Cc2cccc(I)c2)[C@H](C)C(=O)O)cc1
64 | 6.23 | – | COc1ccc(S(=O)(=O)N(Cc2ccc3c(c2)OCO3)[C@H](Cc2ccncc2)C(=O)O)cc1
65 | 6.33 | – | COc1ccc(S(=O)(=O)N(Cc2ccc3c(c2)OCO3)[C@H](Cc2ccco2)C(=O)O)cc1
66 | 6.70 | – | CCCCN(C)C(=N)NCCCC[C@H](C(=O)O)N(Cc1ccc2c(c1)OCO2)S(=O)(=O)c1ccc(OC)cc1
67 | 6.42 | – | COc1ccc(S(=O)(=O)N(Cc2cccc(C)c2[N+](=O)[O-])[C@H](C)C(=O)O)cc1
68 | – | 7.22 | COc1ccc(S(=O)(=O)N(Cc2sc3scc(C)c3c2C)[C@H](C)C(=O)NO)cc1
69 | – | 9.70 | COc1ccc(S(=O)(=O)N(Cc2ccc3c(c2)OCO3)[C@H](Cc2cccs2)C(=O)NO)cc1 (stereo in doubt; 2)
70 | 6.17 | – | COc1ccc(S(=O)(=O)N(Cc2ccc3c(c2)OCO3)[C@H](Cc2ccc(Br)s2)C(=O)O)cc1
71 | 7.10 | – | COc1ccc(S(=O)(=O)N(Cc2ccc(F)c(F)c2)[C@H](Cc2cccs2)C(=O)NO)cc1
72 | 6.42 | – | COc1ccc(S(=O)(=O)N(Cc2ccc3c(c2)OCO3)[C@H](COCc2ccccc2)C(=O)O)cc1
73 | 8.00 | – | C#CC[C@H](C(=O)O)N(Cc1ccc2c(c1)OCO2)S(=O)(=O)c1ccc(OC)cc1
